Source: the Kinase Knowledgebase extract (Sharma et al. 2016)

Biological target: CDK2 (human) (UniProt P24941)
Assay: Enzyme Assay

Row | Structure (SMILES) | IC50 [µM]
1 | CC(C)(C)c1ccc2c(c1)C(=CNCc1cc(O)ccc1-c1ccoc1)C(=O)NC2=O | 13.1
2 | O=C1NC(=O)c2ccc(Br)cc2/C1=C/NCc1ccc(OCCO)c(O)c1 | 50
3 | Cc1cccc(-c2ccc3c(c2)C(=CNCc2ccc(O)c(O)c2)C(=O)NC3=O)c1 | 50
4 | O=C1NC(=O)c2ccccc2/C1=C/Nc1ccc(CN2CCCCC2)cc1 | 23
5 | C=CCOc1ccc(CN/C=C2\C(=O)NC(=O)c3ccc(Br)cc32)cc1O | 29
6 | COc1ccc(CNC=C2C(=O)NC(=O)c3ccc(-c4ccc5ccccc5c4)cc32)cc1O | 50
7 | CC(=O)Nc1ccc(CN/C=C2\C(=O)NC(=O)c3ccc(Br)cc32)cc1O | 50
8 | O=C1NC(=O)c2ccc(-c3ccoc3)cc2/C1=C/NCc1ccc(OC(F)F)c(O)c1 | 50
9 | CC(C)(C)c1ccc2c(c1)C(=CNCc1ccc(-c3ccoc3)c(O)c1)C(=O)NC2=O | 13.1
10 | COc1cnc(CNC=C2C(=O)NC(=O)c3ccc(-n4cccc4)cc32)cc1O | 2.4
11 | CCCOc1ccc(CN/C=C2\C(=O)NC(=O)c3ccc(I)cc32)nc1O | 0.7
